Columns and labels:
[1] = test system: Alopecurus; assay: Pre-emergence test/greenhouse; assay type: in vivo; details: 504 h, 30 g of ai./ha, after three weeks, read-out: degree of damage, Alopecurus
Procedure: (§1) Pre-Emergence Test/Greenhouse Solvent: 5 parts by weight of acetone Emulsifier: 1 part by weight of alkylaryl polyglycol ether To produce a suitable preparation of active compound, 1 part by weight of active compound is mixed with the stated amount of solvent, the stated amount of emulsifier is added and the concentrate is diluted with water to the desired concentration. Seeds of the test plants are sown in normal soil. After about 24 hours, the soil is sprayed with the preparation of active compound such that the particular amount of active compound desired is applied per unit area. The concentration of the spray liquor is chosen so that the particular amount of active compound desired is applied in 500 ml of water per hectare. After three weeks, the degree of damage to the plants is assessed in % damage in comparison to the development of the untreated control. The figures denote: • 0%=no effect (like untreated control) • 100%=total destruction

[2] = test system: Avena; assay: Pre-emergence test/greenhouse; assay type: in vivo; details: 504 h, 30 g of ai./ha, after three weeks, read-out: degree of damage, Avena
Procedure: as §1

[3] = test system: Digitaria; assay: Pre-emergence test/greenhouse; assay type: in vivo; details: 30 g of ai./ha, after three weeks
Procedure: as §1

[4] = test system: Matricaria; assay: Pre-emergence test/greenhouse; assay type: in vivo; details: 30 g of ai./ha, after three weeks
Procedure: as §1

[5] = test system: Polygonum; assay: Pre-emergence test/greenhouse; assay type: in vivo; details: 30 g of ai./ha, after three weeks
Procedure: as §1

[6] = test system: Wheat; assay: Pre-emergence test/greenhouse; assay type: in vivo; details: pre-emergence; for degree of damage, Wheat: 30 g of ai./ha, after three weeks, 0%=no effect, 100%=total destruction
Procedure: as §1

[7] = test system: Veronica; assay: Post-emergence test/greenhouse; assay type: in vivo; details: 60 g ai./ha, after three weeks
Procedure: (§2) Post-Emergence Test/Greenhouse [table] To produce a suitable preparation of active compound, 1 part by weight of active compound is mixed with the stated amount of solvent, the stated amount of emulsifier is added and the concentrate is diluted with water to the desired concentration. Test plants which have a height of 5-15 cm are sprayed with the preparation of active compound such that the particular amounts of active compound desired are applied per unit area. The concentration of the spray liquor is chosen so that the particular amounts of active compound desired are applied in 500 ml of water/ha. After three weeks, the degree of damage to the plants is assessed in % damage in comparison to the development of the untreated control. The figures denote: • 0%=no effect (like untreated control) • 100%=total destruction

[8] = test system: Wheat; assay: Post-emergence test/greenhouse; assay type: in vivo; details: post-emergence, 60 g ai./ha, after three weeks; 0%=no effect, 100%=total destruction
Procedure: as §2

[9] = test system: Avena fatua; assay: Post-emergence tests/outdoors (Example C, Canada); assay type: in vivo; details: outdoors, 70 WP, 6 tests
Procedure: (§3) Post-Emergence Tests/Outdoors In addition to the comparative compounds (B) and (D), the sodium salt of the compound of the formula (I) was tested under outdoor conditions in the main cultivation areas of summer wheat in Canada against economically important weeds. The small-plot experiments were carried out on cultivated land under agricultural use. Areas with particularly extensive weed growth were chosen preferably. The active compounds were applied across the area by the spray method, with an average droplet size. To produce a useful preparation of active compound, the active compounds were formulated as 70 WP (70% w/w water-dispersible powder) and applied with customary amounts of water. Wetting of the plants was improved by addition of a surface-active substance (SAS) in the concentrations recommended by the respective manufacturer. To assess the crop compatibility, from 1 to 8 weeks after the treatment, plant growth inhibitions or […] of the leaf area were assessed in % damage in comparison to the development of the untreated control. At different intervals after the treatment, the herbicidal activity was assessed as % reduction in comparison to the untreated control, based on the weed development. The figures denote: • 0%=no damage of the crops or no herbicidal effect, • 100%=total destruction of the crops or the weeds.

[10] = test system: Fallopia convolvulus; assay: Post-emergence tests/outdoors (Example C, Canada); assay type: in vivo; details: outdoors, 70 WP, 5 tests
Procedure: as §3

[11] = test system: Setaria viridis; assay: Post-emergence tests/outdoors (Example C, Canada); assay type: in vivo; details: outdoors, 70 WP, 5 tests
Procedure: as §3

[12] = test system: Sinapis arvensis; assay: Post-emergence tests/outdoors (Example C, Canada); assay type: in vivo; details: outdoors, 70 WP, 5 tests
Procedure: as §3

[13] = test system: Thlaspi arvense; assay: Post-emergence tests/outdoors (Example C, Canada); assay type: in vivo; details: outdoors, 70 WP, 3 tests
Procedure: as §3

[14] = test system: wheat; assay: Post-emergence tests/outdoors (Example C, Canada), crop damage; assay type: in vivo, summer wheat; details: outdoors, 70 WP, 9 tests, 1 to 8 weeks after treatment
Procedure: as §3

[15] = test system: weeds, such as Alopecurus, Avena, Bromus, Digitaria, Echinochloa, Matricaria, Polygonum and Setaria; assay: Pre-emergence test/greenhouse, summary over weeds; assay type: in vivo; details: cf. Table A1
Procedure: Pre-Emergence Test/Greenhouse Solvent: 5 parts by weight of acetone Emulsifier: 1 part by weight of alkylaryl polyglycol ether To produce a suitable preparation of active compound, 1 part by weight of active compound is mixed with the stated amount of solvent, the stated amount of emulsifier is added and the concentrate is diluted with water to the desired concentration. Seeds of the test plants are sown in normal soil. After about 24 hours, the soil is sprayed with the preparation of active compound such that the particular amount of active compound desired is applied per unit area. The concentration of the spray liquor is chosen so that the particular amount of active compound desired is applied in 500 ml of water per hectare. After three weeks, the degree of damage to the plants is assessed in % damage in comparison to the development of the untreated control. […] Table A1). The considerable superiority of (I)-Na-salt over the comparative compound (G) is shown in Table A2 [“ai.”=“active ingredient”].

[16] = test system: weeds, such as Agropyron, Alopecurus, Avena, Bromus, Lolium, Setaria and Veronica; assay: Post-emergence test/greenhouse, summary over weeds; assay type: in vivo; details: cf. Table B1
Procedure: as §2, with “[…] A considerable superiority of (I)-Na-salt (at 125 g/ha) over the comparative compounds (G) and (H) (in each case at 250 g/ha!) is shown in Table B2.” for “The figures denote: • 0%=no effect (like untreated control) • 100%=total destruction”

[17] = test system: Alopecurus; assay: Post-emergence test/greenhouse; assay type: in vivo; details: 504 h, 60 g ai./ha, after three weeks, read-out: degree of damage, Alopecurus
Procedure: as §2

[18] = test system: Lolium; assay: Post-emergence test/greenhouse; assay type: in vivo; details: 60 g ai./ha, after three weeks
Procedure: as §2

[19] = test system: Bromus; assay: Pre-emergence test/greenhouse; assay type: in vivo; details: 30 g of ai./ha, after three weeks
Procedure: as §1

[20] = test system: Echinochloa; assay: Pre-emergence test/greenhouse; assay type: in vivo; details: 30 g of ai./ha, after three weeks
Procedure: as §1

[21] = test system: Setaria; assay: Pre-emergence test/greenhouse; assay type: in vivo; details: 30 g of ai./ha, after three weeks
Procedure: as §1

[22] = test system: Agropyron; assay: Post-emergence test/greenhouse; assay type: in vivo; details: 60 g ai./ha, after three weeks
Procedure: as §2

[23] = test system: Avena; assay: Post-emergence test/greenhouse; assay type: in vivo; details: 60 g ai./ha, after three weeks
Procedure: as §2

[24] = test system: Bromus; assay: Post-emergence test/greenhouse; assay type: in vivo; details: 60 g ai./ha, after three weeks
Procedure: as §2

[25] = test system: Setaria; assay: Post-emergence test/greenhouse; assay type: in vivo; details: 60 g ai./ha, after three weeks
Procedure: as §2

[26] = 15 g of a.i./ha + SAS (Canplus 411)
[27] = 30 g of a.i./ha + SAS (Canplus 411)

## COc1nn(C(=O)NS(=O)(=O)c2ccccc2C(F)(F)F)c(=O)n1C [(D), 2-(2-Trifluoromethyl-phenylsulphonylaminocarbonyl)-4-methyl-5-methoxy-2,4-dihydro-3H-1,2,4-triazol-3-one]
[1]
  pest or weed control at 30 g/ha: 70%
[2]
  pest or weed control at 30 g/ha: 50%
[3]
  degree of damage, Digitaria: 80%
[4]
  degree of damage, Matricaria: 30%
[5]
  degree of damage, Polygonum: 70%
[6]
  degree of damage, Wheat: 0%
[7]
  degree of damage, Veronica: 0%
[8]
  degree of damage, Wheat: 0%
[9]; [26]
  herbicidal effect (%), Avena fatua: 65%
[10]; [26]
  herbicidal effect (%), Fallopia convolvulus: 70%
[11]; [26]
  herbicidal effect (%), Setaria viridis: 81%
[12]; [26]
  herbicidal effect (%), Sinapis arvensis: 95%
[13]; [26]
  herbicidal effect (%), Thlaspi arvense: 95%
[14]; [26]
  Crop damage (wheat): 12%
[15]
  herbicidal activity (in words, compared with (I)-Na-salt): considerably weaker herbicidal activity
[16]
  herbicidal activity (in words, compared with (I)-Na-salt): considerably weaker herbicidal activity

## CCOc1nn(C(=O)NS(=O)(=O)c2ccccc2OC(F)(F)F)c(=O)n1C [(B), 2-(2-Trifluoromethoxy-phenylsulphonylaminocarbonyl)-4-methyl-5-ethoxy-2,4-dihydro-3H-1,2,4-triazol-3-one]
[1]
  pest or weed control at 30 g/ha: 70%
[2]
  pest or weed control at 30 g/ha: 80%
[5]
  degree of damage, Polygonum: 80%
[6]
  degree of damage, Wheat: 50%
[6]; cf. Table A1
  compatibility with crop plants (wheat), in words: not compatible with wheat
[17]
  pest or weed control at 60 g/ha: 40%
[18]
  degree of damage, Lolium: 70%
[7]
  degree of damage, Veronica: 70%
[8]
  degree of damage, Wheat: 0%
[9]; [27]
  herbicidal effect (%), Avena fatua: 69%
[10]; [27]
  herbicidal effect (%), Fallopia convolvulus: 71%
[11]; [27]
  herbicidal effect (%), Setaria viridis: 95%
[12]; [27]
  herbicidal effect (%), Sinapis arvensis: 97%
[13]; [27]
  herbicidal effect (%), Thlaspi arvense: 97%
[14]; [27]
  Crop damage (wheat): 5%
[16]
  herbicidal activity (in words, compared with (I)-Na-salt): considerably weaker herbicidal activity

## COc1nn(C(=O)NS(=O)(=O)c2ccccc2OC(F)F)c(=O)n1C [(E), 2-(2-Difluoromethoxy-phenylsulphonylaminocarbonyl)-4-methyl-5-methoxy-2,4-dihydro-3H-1,2,4-triazol-3-one]
[1]
  pest or weed control at 30 g/ha: 50%
[2]
  pest or weed control at 30 g/ha: 30%
[19]
  degree of damage, Bromus: 0%
[3]
  degree of damage, Digitaria: 40%
[20]
  degree of damage, Echinochloa: 30%
[4]
  degree of damage, Matricaria: 0%
[5]
  degree of damage, Polygonum: 60%
[21]
  degree of damage, Setaria: 80%
[6]
  degree of damage, Wheat: 0%
[22]
  degree of damage, Agropyron: 60%
[17]
  pest or weed control at 60 g/ha: 20%
[23]
  degree of damage, Avena: 70%
[24]
  degree of damage, Bromus: 0%
[18]
  degree of damage, Lolium: 20%
[7]
  degree of damage, Veronica: 30%
[8]
  degree of damage, Wheat: 0%
[15]
  herbicidal activity (in words, compared with (I)-Na-salt): considerably weaker herbicidal activity
[16]
  herbicidal activity (in words, compared with (I)-Na-salt): considerably weaker herbicidal activity

## CCn1c(OC)nn(C(=O)NS(=O)(=O)c2ccccc2OC(F)(F)F)c1=O [(A), 2-(2-Trifluoromethoxy-phenylsulphonylaminocarbonyl)-4-ethyl-5-methoxy-2,4-dihydro-3H-1,2,4-triazol-3-one]
[1]
  pest or weed control at 30 g/ha: 20%
[2]
  pest or weed control at 30 g/ha: 0%
[19]
  degree of damage, Bromus: 40%
[3]
  degree of damage, Digitaria: 0%
[20]
  degree of damage, Echinochloa: 50%
[4]
  degree of damage, Matricaria: 0%
[5]
  degree of damage, Polygonum: 0%
[21]
  degree of damage, Setaria: 60%
[6]
  degree of damage, Wheat: 0%
[22]
  degree of damage, Agropyron: 0%
[17]
  pest or weed control at 60 g/ha: 0%
[23]
  degree of damage, Avena: 0%
[24]
  degree of damage, Bromus: 40%
[18]
  degree of damage, Lolium: 0%
[25]
  degree of damage, Setaria: 40%
[8]
  degree of damage, Wheat: 0%
[15]
  herbicidal activity (in words, compared with (I)-Na-salt): considerably weaker herbicidal activity
[16]
  herbicidal activity (in words, compared with (I)-Na-salt): considerably weaker herbicidal activity

## COn1c(C)nn(C(=O)NS(=O)(=O)c2ccccc2OC(F)(F)F)c1=O [(C), 2-(2-Trifluoromethoxy-phenylsulphonylaminocarbonyl)-4-methoxy-5-methyl-2,4-dihydro-3H-1,2,4-triazol-3-one]
[1]
  pest or weed control at 30 g/ha: 0%
[2]
  pest or weed control at 30 g/ha: 0%
[19]
  degree of damage, Bromus: 0%
[3]
  degree of damage, Digitaria: 0%
[20]
  degree of damage, Echinochloa: 0%
[4]
  degree of damage, Matricaria: 0%
[5]
  degree of damage, Polygonum: 0%
[21]
  degree of damage, Setaria: 0%
[6]
  degree of damage, Wheat: 0%
[22]
  degree of damage, Agropyron: 0%
[17]
  pest or weed control at 60 g/ha: 0%
[23]
  degree of damage, Avena: 0%
[24]
  degree of damage, Bromus: 0%
[18]
  degree of damage, Lolium: 0%
[25]
  degree of damage, Setaria: 0%
[7]
  degree of damage, Veronica: 0%
[8]
  degree of damage, Wheat: 0%
[15]
  herbicidal activity (in words, compared with (I)-Na-salt): considerably weaker herbicidal activity
[16]
  herbicidal activity (in words, compared with (I)-Na-salt): considerably weaker herbicidal activity

From patent publication US7651978B2, “Selective herbicides based on a substituted phenylsulphonylaminocarbonyl-triazolinone” (Arysta LifeScience North America, LLC, priority 1998, dated 2010)
